{"source": "patent US20250268860A1", "about": "“COMPOSITION FOR USE IN THE CUTANEOUS SYNTHESIS OF HYALURONIC ACID, IN AN IMMUNO-CUTANEOUS RESPONSE AND TO IMPROVE SKIN” (JR, priority 2021, published 2025)", "key": {"[1]": {"test_system": "hyaluronic acid synthesis", "experiment": "Hyaluronic acid assay (ELISA) in fibroblast culture supernatant", "assay_type": "cell-based, human", "procedure": "At confluence, the fibroblasts were trypsinized and seeded in 6-well plates at 0.08×10^6 cells per well in DMEMc 10% FCS. After 24 hours of culturing, the medium was replaced with DMEMc 1% FCS.\nAfter 24 hours of culturing, 2 ml of medium with or without active agent were added. The active agents were diluted to the concentrations chosen following cytotoxicity tests in DMEMc 1% FCS culture medium.\nAliquots were stored at −80° C. until assayed. The cell monolayers were washed with PBS and 500 μl of 0.1N NaOH were added. The cell lyzate was stored at −20° C. until protein assay.\nThe amount of hyaluronic acid in the various samples was determined by ELISA (Enzyme-Linked Immunosorbent Assay) using a TECO@kit. This kit is a sensitive sandwich assay which uses microplates coated with hyaluronic acid binding protein (HABP) and HRP-conjugated HABP binding protein for detection. The HRP-conjugated HABP binding protein binds to the hyaluronic acid contained in the sample, and then reacts with the substrate. The color intensity is proportional to the HA content of the sample.\n100 μl of standard or 100 μl of sample diluted to 1:50 were added to each well. The plate was incubated for 2 hours at room temperature, with agitation. After washing the plate, 100 μl of HRBP-HRP conjugate were added to each well. The plate was incubated for 30 minutes at room temperature, with agitation. After washing the wells, 100 μl of TMB substrate were added. The plate was incubated for 30 minutes at room temperature, in the dark and with agitation. The reaction was stopped by adding 100 μl of stop solution per well. Optical density readings were immediately taken at 450 nm.\nThe calibration curve was plotted, representing OD as a function of hyaluronic acid concentration. A regression curve was then plotted and the amounts of hyaluronic acid contained in the samples were determined by means of the equation of this regression curve. The hyaluronic acid concentrations are expressed in ng/mg of protein.\nA calibration range (0-2 mg/ml) was established using a solution of bovine serum albumin. 20 μl of each point of the calibration or sample range were placed in duplicate in the wells of a 96-well plate. 200 μl of Pierce reagent were added and the plate was incubated for 30 minutes at 37° C. The absorbance was read immediately at 550 nm (MultiSkan FC spectrophotometer, Thermo).\nSignificance is retained only when p<0.05."}, "beta-defensin-2 (hBD-2)": {"test_system": "beta-defensin-2 (hBD-2)", "experiment": "hBD-2 release from keratinocytes, ELISA", "assay_type": "cell-based, human", "conditions": "for hBD-2 % control / hBD-2 Mean / hBD-2: 72 hours; for hBD-2: single values", "procedure": "More specifically, the effect of these compounds was evaluated on the release of beta-defensin-2 (hBD -2) by Enzyme-Linked Immunosorbent Assay (ELISA). Prior to this, a preliminary cytotoxicity test was performed using a standard WST-8 reduction assay to determine the concentrations to be tested.\n(§1) • Cell type: Normal human epidermal keratinocytes (NHEK), used at the third passage • Culture conditions: 37° C., 5% CO2 • Culture medium: Keratinocyte-SFM optimized for the test, supplemented with Epidermal Growth Factor and pituitary extract\nThe keratinocytes were seeded in 96-well plates and cultured in culture medium for 24 hours. The medium was then replaced with culture medium containing or not (control) the compounds to be tested or the reference cytokine mixture (IL-17+IL-22+TNF-α at 5 ng/ml each). The cells were then incubated for 72 hours. All the experimental conditions were performed in n=3.\nThe inter-group comparisons were made using the unpaired bilateral Student's t-test. The statistical analyses can be interpreted if n>5; however for n<5, the calculated data are provided purely as a guide."}, "[2]": {"test_system": "Fibroblasts from healthy skin (FS)", "procedure": "Fibroblasts from healthy skin (FS) are cultured from biopsies performed on a patient, on a skin explant derived from surgery and considered as surgical waste. The conventional explantation technique is used for fibroblast extraction. The explants are cultured in Dulbecco's modified Eagle's medium supplemented with 10% fetal calf serum (FCS), 40 mg/l gentamicin and 2 mg/l fungizone (DMEMc) at 37° C., in a humid atmosphere and in the presence of 5% CO2.\nThe study of cell viability in the presence of the active principles to be tested is performed by means of an MTT assay. MTT is a tetrazolium salt whose ring is transformed by mitochondrial dehydrogenases. The yellow substrate is transformed into a dark blue product by living cells, but not by dead cells or the culture medium. This colorimetric test allows the color intensity to be linked to the number of living cells. The absorbance at 550 nm is directly proportional to the number of living fibroblasts. Cytotoxicity occurs when the cell viability is less than 80% relative to the control.\nThe active agents in powder form were taken up in 100% DMSO so as to obtain the stock solutions. […] After 24 hours of culturing, the active principles to be tested were added. Twelve concentrations of each active principle were tested (n=10/concentration). The active agents were dissolved directly in the culture medium from the stock solutions. After 24 hours of culturing in the presence of the active agents, an MTT assay was performed.\nFollowing the cytotoxicity results of the two active agents alone, a second cytotoxicity test was performed with the mixture. For each mixture, three concentrations were tested (n=10/concentration): • C1: highest concentration • C2: ½ dilution • C3: […]\nThe values are expressed as a percentage relative to the control, plus or minus the standard error of the distribution of the means (SEM). A one-factor analysis of variance is performed, followed if necessary by a Fisher test. Significance is retained only when p<0.05."}, "[3]": {"test_system": "Normal human epidermal keratinocytes (NHEK)", "experiment": "Preliminary test of cytotoxicity, WST-8 reduction and morphological observations", "assay_type": "cell-based", "conditions": "72 h", "procedure": "as §1\n• Cell type: NHEK in culture medium • Incubation time: 72 hours • Evaluation parameters: WST-8 reduction and morphological microscopic observations.\nAt the end of the treatment, the cells were incubated in the presence of WST-8 (a highly water-soluble tetrazolium salt), reduced to a water-soluble, orange-colored product (formazan) by succinate dehydrogenase (a mitochondrial enzyme). This transformation is proportional to the number of living cells and their metabolic activity. The optical density (OD) was measured with a spectrophotometer at 450 nm (VERSAmax, Molecular Devices).\nPercentage viability: viability (%)=(OD compound/OD control)×100"}}, "note": "Read-outs that look alike come from different tables or passages of the source."}
{"smiles": "O=C(/C=C/c1ccc(O)c(O)c1)O[C@@H]1C[C@](O)(C(=O)O)C[C@@H](O)[C@H]1O", "note": "[GPCB07, chlorogenic acid]", "values": [{"measurement": "improvement of hyaluronic acid (HA) content of skin cells reported in Ref. 18", "setting": "[1]; 100 μM, FIG. 4", "value": "could not be reproduced"}, {"measurement": "decrease of hyaluronic acid synthesis", "setting": "[1]; tested alone, 100 μM, 48 hours, relative to control", "value": "about 20%"}, {"measurement": "effect on beta-defensin-2 release from human epidermal keratinocytes", "setting": "beta-defensin-2 (hBD-2)", "value": "no effect"}, {"measurement": "hBD-2 % control", "setting": "beta-defensin-2 (hBD-2); 0.0033%", "value": "<73", "unit": "% control"}, {"measurement": "hBD-2 Mean", "setting": "beta-defensin-2 (hBD-2); 0.0033%", "value": "<8", "unit": "pg/mL"}, {"measurement": "hBD-2", "setting": "beta-defensin-2 (hBD-2); 0.0033%", "value": "<8", "unit": "pg/mL"}, {"measurement": "hBD-2 % control", "setting": "beta-defensin-2 (hBD-2); 0.01%", "value": "<73", "unit": "% control"}, {"measurement": "hBD-2 Mean", "setting": "beta-defensin-2 (hBD-2); 0.01%", "value": "<8", "unit": "pg/mL"}, {"measurement": "hBD-2", "setting": "beta-defensin-2 (hBD-2); 0.01%", "value": "<8", "unit": "pg/mL"}, {"measurement": "hBD-2 % control", "setting": "beta-defensin-2 (hBD-2); 0.03%", "value": "<73", "unit": "% control"}, {"measurement": "hBD-2 Mean", "setting": "beta-defensin-2 (hBD-2); 0.03%", "value": "<8", "unit": "pg/mL"}, {"measurement": "hBD-2", "setting": "beta-defensin-2 (hBD-2); 0.03%", "value": "<8", "unit": "pg/mL"}, {"measurement": "maximum non-cytotoxic concentration retained", "setting": "[2]; female, human, 24 h", "value": 100, "unit": "µM"}, {"measurement": "Viability (%/Ctrl)", "setting": "[2]; female, human, 24 h, 0.5 μM", "value": 95.14, "unit": "%/Ctrl"}, {"measurement": "Viability (%/Ctrl)", "setting": "[2]; female, human, 24 h, 1 μM", "value": 94.89, "unit": "%/Ctrl"}, {"measurement": "Viability (%/Ctrl)", "setting": "[2]; female, human, 24 h, 5 μM", "value": 101.75, "unit": "%/Ctrl"}, {"measurement": "Viability (%/Ctrl)", "setting": "[2]; female, human, 24 h, 10 μM", "value": 89.63, "unit": "%/Ctrl"}, {"measurement": "Viability (%/Ctrl)", "setting": "[2]; female, human, 24 h, 25 μM", "value": 100.28, "unit": "%/Ctrl"}, {"measurement": "Viability (%/Ctrl)", "setting": "[2]; female, human, 24 h, 50 μM", "value": 99.64, "unit": "%/Ctrl"}, {"measurement": "Viability (%/Ctrl)", "setting": "[2]; female, human, 24 h, 75 μM", "value": 103.28, "unit": "%/Ctrl"}, {"measurement": "Viability (%/Ctrl)", "setting": "[2]; female, human, 24 h, 100 μM", "value": 100.41, "unit": "%/Ctrl"}]}
{"smiles": "O=C(O)[C@H]1O[C@@H](Oc2cc3oc(-c4ccccc4)cc(=O)c3c(O)c2O)[C@H](O)[C@@H](O)[C@@H]1O", "note": "[GPCB09, baicalin]", "values": [{"measurement": "effect on HA content relative to a control test", "setting": "[1]; 25 μM, FIG. 4", "value": "improve HA content"}, {"measurement": "increase of hyaluronic acid synthesis", "setting": "[1]; tested alone, 25 μM, 48 hours, relative to control", "value": "about 30%"}, {"measurement": "effect on beta-defensin-2 release from human epidermal keratinocytes", "setting": "beta-defensin-2 (hBD-2)", "value": "no effect"}, {"measurement": "hBD-2 % control", "setting": "beta-defensin-2 (hBD-2); 0.0001%", "value": "<73", "unit": "% control"}, {"measurement": "hBD-2 Mean", "setting": "beta-defensin-2 (hBD-2); 0.0001%", "value": "<8", "unit": "pg/mL"}, {"measurement": "hBD-2", "setting": "beta-defensin-2 (hBD-2); 0.0001%", "value": "<8", "unit": "pg/mL"}, {"measurement": "hBD-2 % control", "setting": "beta-defensin-2 (hBD-2); 0.0003%", "value": "<73", "unit": "% control"}, {"measurement": "hBD-2 Mean", "setting": "beta-defensin-2 (hBD-2); 0.0003%", "value": "<8", "unit": "pg/mL"}, {"measurement": "hBD-2", "setting": "beta-defensin-2 (hBD-2); 0.0003%", "value": "<8", "unit": "pg/mL"}, {"measurement": "hBD-2 % control", "setting": "beta-defensin-2 (hBD-2); 0.001%", "value": "<73", "unit": "% control"}, {"measurement": "hBD-2 Mean", "setting": "beta-defensin-2 (hBD-2); 0.001%", "value": "<8", "unit": "pg/mL"}, {"measurement": "hBD-2", "setting": "beta-defensin-2 (hBD-2); 0.001%", "value": "<8", "unit": "pg/mL"}, {"measurement": "Viability (%/Ctrl)", "setting": "[2]; 0.5 μM, 24 hours", "value": 99.82, "unit": "%/Ctrl"}, {"measurement": "Viability (%/Ctrl)", "setting": "[2]; 1.0 μM, 24 hours", "value": 98.27, "unit": "%/Ctrl"}, {"measurement": "Viability (%/Ctrl)", "setting": "[2]; 5.0 μM, 24 hours", "value": 101.92, "unit": "%/Ctrl"}, {"measurement": "Viability (%/Ctrl)", "setting": "[2]; 10.0 μM, 24 hours", "value": 100.76, "unit": "%/Ctrl"}, {"measurement": "Viability (%/Ctrl)", "setting": "[2]; 50.0 μM, 24 hours", "value": 86.65, "unit": "%/Ctrl"}, {"measurement": "Viability (%/Ctrl)", "setting": "[2]; 100.00 μM, 24 hours", "value": 21.80, "unit": "%/Ctrl"}, {"measurement": "decrease in cell viability relative to the control", "setting": "[2]; 75 and 100 μM", "value": "very significant"}, {"measurement": "concentration causing a significant reduction in cell viability relative to the control", "setting": "[2]; 24 hours, MTT", "value": "≥ 50", "unit": "µM"}, {"measurement": "maximum non-cytotoxic concentration retained", "setting": "[2]; active agent alone", "value": 25, "unit": "µM"}, {"measurement": "Viability Mean (%)", "setting": "[3]; 0.0004 mg/mL", "value": 99, "unit": "%"}, {"measurement": "Viability Mean (%)", "setting": "[3]; 0.0012 mg/mL", "value": 96, "unit": "%"}, {"measurement": "Viability Mean (%)", "setting": "[3]; 0.0037 mg/mL", "value": 87, "unit": "%"}, {"measurement": "Viability Mean (%)", "setting": "[3]; 0.011 mg/mL", "value": 66, "unit": "%"}, {"measurement": "Viability Mean (%)", "setting": "[3]; 0.033 mg/mL", "value": 35, "unit": "%"}, {"measurement": "Viability Mean (%)", "setting": "[3]; 0.098 mg/mL", "value": 21, "unit": "%"}, {"measurement": "Viability Mean (%)", "setting": "[3]; 0.287 mg/mL", "value": 19, "unit": "%"}, {"measurement": "Viability Mean (%)", "setting": "[3]; 0.38 mg/mL", "value": 1, "unit": "%"}]}
